Legend:
[1] = system: onset of bronchitis in infants; experiment: Logistic regression: breast milk carbohydrate component concentrations vs onset of bronchitis in infants during first year of life (153 samples); type: in vivo, human; settings: for Odds ratio: concentration in breast milk vs onset of infant bronchitis within one year, adjusted for sex, siblings, method of delivery, birth weight; for Relationship between concentration and the onset of bronchitis (in words) / Regression coefficient: logistic regression; for Regression coefficient: concentration in breast milk vs onset of infant bronchitis
Method: Various carbohydrate components were measured for 153 breast milk samples, analyzing a relationship with a presence or absence of the onset of bronchitis in infants during the first year of life using a logistic regression.
(§1) Bean Stalk Snow Co., Ltd. Conducted a prospective cohort study (UMIN ID 000015494) from 2014 to 2019 for investigating the relationship between the breast milk components of Japanese and a health status of mothers and children in Japan. In the study, breast milk samples collected from 1,210 mothers and questionnaire results of investigating the health status of mothers and children were used in the study. In addition, 200 samples were randomly selected from the 1,210 samples. The breast milk collected between 1 and 2 months after childbirth was used as the breast milk samples for analysis. Parents filled out questionnaires investigating the health status of their infants six times in total, every two months for one year after birth, and the results were collected. From the questionnaire results, the results were compiled of whether or not the infants were diagnosed with the bronchitis by a doctor within one year after the childbirth. If a description of a presence or absence of the onset of bronchitis was unclear, they were excluded from the study.
(§2) As a result, in the questionnaires conducted six times in total in a year, for 153 samples, questionnaires were answered correctly about whether the infants had been diagnosed with the bronchitis, and the samples became subjects to be analyzed in the study. Of the 153 samples, 18 samples were from infants diagnosed with the bronchitis within one year of birth.
For the 153 breast milk samples, the relationship between the concentrations of N-acetylneuraminic acid, the oligosaccharide, the N-linked glycan, the O-linked glycan, the disialo N-linked glycan A, and the disialo N-linked glycan B and the onset of infant bronchitis was analyzed using the logistic regression. Sex of the infant, a presence or absence of siblings, the method of delivery (natural birth, cesarean section), and a birth weight were used as adjustment factors.

[2] = system: onset of bronchitis in infants; experiment: Two-group comparison of breast milk concentrations (infants ever vs never contracted bronchitis) and Fisher's exact test at a cut-off concentration; type: in vivo, human; settings: for Concentration in the breast milk that reduces the risk of contracting the bronchitis: cut-off of Fisher's exact test; for Concentration in breast milk consumed by infants who had never contracted bronchitis versus infants who had ever contracted bronchitis: two groups, FIG. 1-5
From the text: as §1, §2
The breast milk samples were divided into two groups, based on whether or not the infants had ever contracted the bronchitis, comparing the total N-acetylneuraminic acids concentrations in the breast milk. […] A distribution range of the total N-acetylneuraminic acids concentrations in the breast milk consumed by the infants who had never contracted the bronchitis was 181-977 mg/L, with a median of 395 mg/L (Table 2). The distribution of the total N-acetylneuraminic acids concentrations was, different from a normal distribution, a distribution spreading out its tail towards its higher end of concentrations. Such a distribution is seen in the distribution of heights and weights of the infants, and the 3rd to 97th percentile of the overall distribution is used as standards when creating growth curves for infants (Infant Physical Development Survey Report 2000). Based on this, the 3rd to 97th percentile was used as a standard range of the total N-acetylneuraminic acids concentrations in the breast milk. A minimum value of the total N-acetylneuraminic acid concentration in the breast milk consumed by the infants who had never contracted the bronchitis was 221 mg/L corresponding to the 3rd percentile of the distribution.

| Molecule | Odds ratio [1] | Relationship between concentration and the onset of bronchitis (in words) [1] | Regression coefficient [1] | Concentration in the breast milk that reduces the risk of contracting the bronchitis [2] | Concentration in breast milk consumed by infants who had never contracted bronchitis versus infants who had ever contracted bronchitis [2] | Regression coefficient ([1]; listed as disialo N-linked glycan B) | Regression coefficient ([1]; listed as disialo N-linked glycan A) |
| --- | --- | --- | --- | --- | --- | --- | --- |
| CC(=O)N[C@H]1[C@H]([C@H](O)[C@H](O)CO)O[C@@](O[C@H]2[C@@H](O)[C@@H](CO)O[C@@H](O[C@H]3[C@H](O)[C@@H](O)C(O)O[C@@H]3CO)[C@@H]2O)(C(=O)O)C[C@@H]1O (some centres unmarked) [3′-SL, 3′-sialyllactose, reference compound] | 0.53 | not observed | −0.626 | – | – | – | – |
| CC(=O)N[C@H]1[C@H]([C@H](O)[C@H](O)CO)O[C@@](OC[C@H]2O[C@@H](O[C@H]3[C@H](O)[C@@H](O)[C@H](O)O[C@@H]3CO)[C@H](O)[C@@H](O)[C@H]2O)(C(=O)O)C[C@@H]1O [6′-SL, 6′-sialyllactose] | – | – | – | ≥ 135 mg/L | significantly higher | – | – |
| CC(=O)N[C@H]1[C@H]([C@H](O)[C@H](O)CO)OC(O)(C(=O)O)C[C@@H]1O (some centres unmarked) [Total N-acetylneuraminic acid, N-acetylneuraminic acid] | 0.098 | statistically significant relationship | −2.32 | ≥ 246 mg/L | significantly higher | – | – |
| Neu5Acα2-6Galβ1-4GlcNAcβ1-2Manα1-3 (Neu5Acα2-6Galβ1-4GlcNAcβ1-2Manα1-6) Manβ1-4GlcNAcβ1-4 (Fucα1-6) GlcNAc [Disialo N-linked glycan B] | 0.24 | – | −1.407 | ≥ 0.245 µmol/L | significantly higher | negative | – |
| Neu5Acα2-6Galβ1-4GlcNAcβ1-2Manαl-3 (Neu5Acα2-6Galβ1-4GlcNAcβ1-2Manα1-6) Manβ1-4GlcNAcβ1-4GlcNAc [Disialo N-linked glycan A] | 0.15 | – | −1.918 | ≥ 0.313 µmol/L | significantly higher | – | negative |
